Literature values in patent US20160174603A1, “Electronic Vapor Liquid Composition and Method of Use” (priority 2014, published 2016).
Blank lines part the entries; values can stand above or below the compound they belong to.

What was measured:
[1] = biological target: norepinephrine transporter (NAT) (Homo sapiens, UniProt P23975); settings: both enantiomeric forms
[2] = system: thermal hyperalgesia
[3] = system: NMDA-induced current
[4] = system: calcium channel
[5] = system: adenosine receptor; settings: in vitro
[6] = biological target: T1, MAO-B (Homo sapiens, UniProt P27338); settings: read-out: Ki, reversible MAO-B inhibitor
T1 sequence (P27338 1-520): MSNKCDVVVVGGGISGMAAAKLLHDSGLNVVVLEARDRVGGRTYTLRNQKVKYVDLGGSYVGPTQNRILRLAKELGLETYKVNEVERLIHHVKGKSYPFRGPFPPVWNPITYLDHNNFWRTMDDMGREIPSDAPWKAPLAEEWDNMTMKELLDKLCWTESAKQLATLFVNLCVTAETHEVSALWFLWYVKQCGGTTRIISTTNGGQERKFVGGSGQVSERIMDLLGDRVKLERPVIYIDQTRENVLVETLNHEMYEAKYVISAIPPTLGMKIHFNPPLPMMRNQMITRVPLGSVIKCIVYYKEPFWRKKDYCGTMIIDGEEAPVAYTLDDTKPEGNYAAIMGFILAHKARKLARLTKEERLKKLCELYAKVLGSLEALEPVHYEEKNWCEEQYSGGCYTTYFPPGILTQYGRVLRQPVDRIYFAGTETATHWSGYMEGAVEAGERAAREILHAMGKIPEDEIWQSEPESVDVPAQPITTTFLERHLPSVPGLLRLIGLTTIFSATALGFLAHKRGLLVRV

[7] = system: dopamine levels in the nucleus accumbens; settings: rat, in vivo
[8] = biological target: T2, TRPC6 receptor (Homo sapiens, UniProt Q9Y210)
T2 sequence (Q9Y210 1-931): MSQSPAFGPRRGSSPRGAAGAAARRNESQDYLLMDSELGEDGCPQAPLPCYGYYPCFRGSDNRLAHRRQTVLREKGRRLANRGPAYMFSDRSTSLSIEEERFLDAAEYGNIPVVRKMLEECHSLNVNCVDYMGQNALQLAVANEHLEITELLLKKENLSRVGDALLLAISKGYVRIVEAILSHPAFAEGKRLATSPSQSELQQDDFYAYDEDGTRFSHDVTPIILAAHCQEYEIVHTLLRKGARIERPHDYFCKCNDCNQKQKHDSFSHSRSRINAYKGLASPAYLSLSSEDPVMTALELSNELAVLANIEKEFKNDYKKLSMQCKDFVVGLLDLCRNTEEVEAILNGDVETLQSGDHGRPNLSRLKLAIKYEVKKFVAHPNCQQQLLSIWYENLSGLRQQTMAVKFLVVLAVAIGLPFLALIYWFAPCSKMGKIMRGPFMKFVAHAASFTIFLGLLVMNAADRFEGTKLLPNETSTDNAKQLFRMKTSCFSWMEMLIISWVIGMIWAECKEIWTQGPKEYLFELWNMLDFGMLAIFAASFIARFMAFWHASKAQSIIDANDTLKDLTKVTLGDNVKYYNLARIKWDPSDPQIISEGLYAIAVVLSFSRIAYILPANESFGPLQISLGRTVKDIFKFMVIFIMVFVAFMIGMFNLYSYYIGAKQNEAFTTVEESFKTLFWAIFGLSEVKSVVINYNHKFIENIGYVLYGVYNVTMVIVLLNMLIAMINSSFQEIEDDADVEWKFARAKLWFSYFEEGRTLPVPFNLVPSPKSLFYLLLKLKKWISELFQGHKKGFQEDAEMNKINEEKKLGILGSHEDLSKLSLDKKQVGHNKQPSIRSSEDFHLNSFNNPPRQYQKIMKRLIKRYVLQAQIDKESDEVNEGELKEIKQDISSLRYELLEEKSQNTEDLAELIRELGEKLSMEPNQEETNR

[9] = biological target: acetylcholinesterase (Homo sapiens, UniProt P22303); settings: in vitro
Chain of acetylcholinesterase (P22303 32-614, species assumed): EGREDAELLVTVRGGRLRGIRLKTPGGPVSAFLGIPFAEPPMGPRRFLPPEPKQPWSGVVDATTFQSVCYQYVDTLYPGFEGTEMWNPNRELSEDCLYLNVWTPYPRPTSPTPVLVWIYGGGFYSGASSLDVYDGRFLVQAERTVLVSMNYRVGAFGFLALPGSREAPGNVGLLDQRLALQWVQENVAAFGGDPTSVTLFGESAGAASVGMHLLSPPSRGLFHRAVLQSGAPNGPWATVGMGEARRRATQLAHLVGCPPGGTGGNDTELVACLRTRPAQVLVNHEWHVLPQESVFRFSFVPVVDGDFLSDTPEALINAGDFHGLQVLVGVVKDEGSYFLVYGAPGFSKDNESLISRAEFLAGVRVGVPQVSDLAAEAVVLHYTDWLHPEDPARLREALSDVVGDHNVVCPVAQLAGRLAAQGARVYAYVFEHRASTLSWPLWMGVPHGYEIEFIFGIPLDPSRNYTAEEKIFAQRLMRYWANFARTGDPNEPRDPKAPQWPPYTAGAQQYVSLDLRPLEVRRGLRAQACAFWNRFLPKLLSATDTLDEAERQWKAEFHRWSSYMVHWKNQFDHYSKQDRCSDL

Chain of norepinephrine transporter (NAT) (P23975 whole entry): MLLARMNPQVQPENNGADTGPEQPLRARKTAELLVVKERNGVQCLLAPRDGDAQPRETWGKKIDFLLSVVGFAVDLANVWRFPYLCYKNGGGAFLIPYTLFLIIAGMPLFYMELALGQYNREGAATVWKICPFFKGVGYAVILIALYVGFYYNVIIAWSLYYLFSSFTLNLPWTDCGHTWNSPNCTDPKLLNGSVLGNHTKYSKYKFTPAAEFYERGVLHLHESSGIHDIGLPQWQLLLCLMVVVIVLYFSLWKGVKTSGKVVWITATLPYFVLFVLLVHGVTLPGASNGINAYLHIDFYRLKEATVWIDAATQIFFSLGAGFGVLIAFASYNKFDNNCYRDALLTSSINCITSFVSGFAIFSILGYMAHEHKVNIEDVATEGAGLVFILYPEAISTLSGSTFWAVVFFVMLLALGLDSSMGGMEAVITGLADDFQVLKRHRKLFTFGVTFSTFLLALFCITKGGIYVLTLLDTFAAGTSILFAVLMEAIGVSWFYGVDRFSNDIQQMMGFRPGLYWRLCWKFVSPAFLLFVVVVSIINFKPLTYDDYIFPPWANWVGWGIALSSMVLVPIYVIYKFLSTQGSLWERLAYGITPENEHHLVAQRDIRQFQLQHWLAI

Compound: COC1=CC(=O)O[C@@H](/C=C/c2ccccc2)C1 [Kavain]
- reuptake of norepinephrine at the transporter (NAT) [1]: inhibits the reuptake of norepinephrine

Compound: O=C(O)[C@H]1O[C@@H](Oc2cc3oc(-c4ccccc4)cc(=O)c3c(O)c2O)[C@H](O)[C@@H](O)[C@@H]1O [Baicalin]
- effects in a rat model of thermal hyperalgesia [2]: anti-inflammatory and analgesic effects

Compound: CC[C@H]1CN2CC[C@]3(C(=O)Nc4ccccc43)[C@@H]2C[C@@H]1/C(=C\OC)C(=O)OC [rhynchophylline]
- effect on NMDA-induced current [3]: reduces NMDA-induced current
- calcium channel activity [4]: calcium channel blocker

Compound: C=C1C(=O)O[C@@H]2[C@H]3C(CO)=CC(=O)C3=C(C)C[C@@H](O)[C@@H]12 [lactucin]
- adenosine receptor activity [5]: adenosine receptor agonist

- Ki [6]: 280 nM
Compound: COc1cc(/C=C/c2ccccc2)oc(=O)c1 [Desmethoxyyangonin]
- dopamine levels in the nucleus accumbens [7]: able to increase dopamine levels

- TRPC6 receptor activity [8]: TRPC6 receptor agonists
Compound: CCC(C)C(=O)[C@]12C(=O)[C@](CC=C(C)C)(C[C@H](CC=C(C)C)[C@@]1(C)CCC=C(C)C)C(=O)C(CC=C(C)C)=C2O (stereo partly shown) [adhyperforin]

Compound: CC(C)=CCC[C@]1(C)[C@@H](CC=C(C)C)C[C@@]2(CC=C(C)C)C(=O)[C@]1(C(=O)C(C)C)C(=O)C(CC=C(C)C)=C2O [Hyperforin]
- TRPC6 receptor activity [8]: TRPC6 receptor agonists

Compound: lactucopicrin
- acetylcholinesterase activity [9]: acetylcholinesterase inhibitor
